In experiment [1] the target is T1, Sentrin-specific protease 6 (Homo sapiens, UniProt Q9GZR1).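 Also: Luminescence-based dose-response confirmatory assay of SENP6 inhibition, following up an ultra-high-throughput screen.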
T1 sequence (Q9GZR1 whole entry): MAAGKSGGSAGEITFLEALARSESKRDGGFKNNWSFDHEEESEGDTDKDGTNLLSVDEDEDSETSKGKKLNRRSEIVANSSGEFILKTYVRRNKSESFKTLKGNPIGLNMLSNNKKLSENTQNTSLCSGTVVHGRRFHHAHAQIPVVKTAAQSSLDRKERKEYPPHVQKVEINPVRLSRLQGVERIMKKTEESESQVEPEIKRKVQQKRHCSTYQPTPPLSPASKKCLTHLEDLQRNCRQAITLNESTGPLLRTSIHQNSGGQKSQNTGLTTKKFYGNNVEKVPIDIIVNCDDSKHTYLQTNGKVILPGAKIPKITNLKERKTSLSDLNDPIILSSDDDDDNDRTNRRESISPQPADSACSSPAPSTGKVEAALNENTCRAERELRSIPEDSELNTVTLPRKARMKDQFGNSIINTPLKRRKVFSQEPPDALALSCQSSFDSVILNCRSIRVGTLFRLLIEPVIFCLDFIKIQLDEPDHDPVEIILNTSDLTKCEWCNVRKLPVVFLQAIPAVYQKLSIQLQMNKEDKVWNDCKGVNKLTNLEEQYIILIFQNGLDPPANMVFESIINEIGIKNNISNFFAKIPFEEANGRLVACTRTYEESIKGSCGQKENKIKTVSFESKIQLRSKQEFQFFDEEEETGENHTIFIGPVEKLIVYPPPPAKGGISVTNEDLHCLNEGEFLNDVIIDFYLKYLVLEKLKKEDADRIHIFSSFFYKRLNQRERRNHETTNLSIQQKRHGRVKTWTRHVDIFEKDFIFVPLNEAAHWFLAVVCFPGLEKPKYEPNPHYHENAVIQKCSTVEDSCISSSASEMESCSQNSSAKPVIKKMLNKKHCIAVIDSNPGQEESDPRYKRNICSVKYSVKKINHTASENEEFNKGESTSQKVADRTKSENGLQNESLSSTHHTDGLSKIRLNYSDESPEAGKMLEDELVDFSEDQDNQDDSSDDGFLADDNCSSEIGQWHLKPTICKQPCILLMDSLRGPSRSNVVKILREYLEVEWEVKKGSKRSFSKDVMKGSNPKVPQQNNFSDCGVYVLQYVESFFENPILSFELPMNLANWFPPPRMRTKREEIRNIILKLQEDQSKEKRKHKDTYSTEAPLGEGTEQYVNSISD
The format is functional.

For experiment [2], the target named is T2, 1-phosphatidylinositol 4,5-bisphosphate phosphodiesterase gamma-1 (Homo sapiens, UniProt P19174).
T2 sequence (P19174 whole entry): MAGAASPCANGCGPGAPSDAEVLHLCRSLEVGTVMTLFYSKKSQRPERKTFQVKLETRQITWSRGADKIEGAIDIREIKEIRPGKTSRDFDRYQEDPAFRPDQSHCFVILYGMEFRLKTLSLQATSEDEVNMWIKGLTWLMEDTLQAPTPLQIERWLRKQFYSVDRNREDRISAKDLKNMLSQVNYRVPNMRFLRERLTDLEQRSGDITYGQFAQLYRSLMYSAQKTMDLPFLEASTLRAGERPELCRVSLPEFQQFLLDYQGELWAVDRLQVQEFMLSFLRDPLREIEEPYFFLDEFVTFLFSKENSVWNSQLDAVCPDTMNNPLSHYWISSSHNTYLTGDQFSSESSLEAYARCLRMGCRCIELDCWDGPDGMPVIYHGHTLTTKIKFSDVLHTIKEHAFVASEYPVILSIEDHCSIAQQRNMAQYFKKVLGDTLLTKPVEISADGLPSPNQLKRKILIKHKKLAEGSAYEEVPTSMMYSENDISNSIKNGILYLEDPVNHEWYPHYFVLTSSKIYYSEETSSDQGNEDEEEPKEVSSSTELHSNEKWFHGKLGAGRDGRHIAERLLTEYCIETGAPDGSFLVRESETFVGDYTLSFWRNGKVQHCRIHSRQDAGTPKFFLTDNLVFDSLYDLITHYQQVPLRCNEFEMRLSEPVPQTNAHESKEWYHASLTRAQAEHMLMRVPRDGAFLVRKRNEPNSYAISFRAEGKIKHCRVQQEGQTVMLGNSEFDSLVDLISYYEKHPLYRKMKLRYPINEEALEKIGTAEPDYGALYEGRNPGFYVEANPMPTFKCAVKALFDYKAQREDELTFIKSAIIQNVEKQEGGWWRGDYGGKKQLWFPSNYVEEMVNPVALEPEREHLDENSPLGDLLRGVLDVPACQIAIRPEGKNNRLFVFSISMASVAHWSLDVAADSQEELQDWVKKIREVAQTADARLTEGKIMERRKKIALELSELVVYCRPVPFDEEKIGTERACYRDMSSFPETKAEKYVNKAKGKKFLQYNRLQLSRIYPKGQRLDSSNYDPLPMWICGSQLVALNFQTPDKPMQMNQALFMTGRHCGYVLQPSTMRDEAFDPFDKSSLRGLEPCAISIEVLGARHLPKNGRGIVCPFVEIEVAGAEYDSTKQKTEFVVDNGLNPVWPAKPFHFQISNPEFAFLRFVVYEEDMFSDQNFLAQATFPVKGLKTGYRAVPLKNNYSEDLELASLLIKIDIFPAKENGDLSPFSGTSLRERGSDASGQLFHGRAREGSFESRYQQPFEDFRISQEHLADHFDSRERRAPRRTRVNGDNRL
Kind of experiment: Counterscreen for inhibitors of phospholipase C isozymes (PLC-B3): Fluorescence-based biochemical high throughput dose response assay to identify inhibitors of phospholipase C isozymes (PLC-gamma1). On the technique in general: The purpose of a counterscreen is to sort out artefacts and off-target activity.

Consider four compounds from ChEMBL document CHEMBL1201862, “PubChem BioAssay data set” (2004).

Activity calls are given as the source filed them. Some results are limits rather than exact numbers.

For `CN(C)S(=O)(=O)Oc1cccc(C(=O)Nc2ccc(Cl)c(Cl)c2)c1`, the 50% inhibitory concentration (IC50) in experiment [1] was 13.6 µM (active).
The same measure, in the same setting: for `Cc1ccc2[nH]c(/C(C#N)=C/c3ccc(O)c(O)c3)nc2c1` the value was 27.9 µM (active).
As to `O=C(NN1C(=O)CSC1=S)C(=O)NN1C(=O)CSC1=S`, the IC50 in experiment [2] is 4.36 µM (active).
Same read-out and setting: for `O=C1NC(=S)S/C1=C\C=C\c1ccc([N+](=O)[O-])o1` the value was > 122 µM (inactive).

In general, IC50 refers to the concentration that inhibits the measured activity by half.
